The results in this text go back to ChEMBL document CHEMBL1135175, “Synthesis and bioactivities of novel bicyclic thiophenes and 4,5,6,7-tetrahydrothieno[2,3-c]pyridines as inhibitors of tumor necrosis factor-alpha (TNF-alpha) production” (Bioorg Med Chem Lett, 2002).

A word on the IC50: it is the concentration at which inhibition is half-maximal. A higher IC50 goes with weaker potency in that assay. What is called inhibition in vivo is the relative decrease from the control value, in per cent. Low readings indicate a response near the control, high ones a response far below the control.

The species entered for assay [1] is Rattus norvegicus. Put plainly: Evaluated for its ability to inhibit LPS stimulated production of TNF-alpha in rat whole blood. It is filed as functional, organism-based.
Assay [2] relates to Rattus norvegicus. The experiment in a line: TNF-alpha inhibiting activity by in vivo inhibition of serum TNF production in rat at 50 mg/kg, peroral administration. It is filed as functional. Particulars: route oral.
Assay [3] has as its system Rattus norvegicus. The experiment in a line: Compound was evaluated for percentage recovery from paw edema in adjuvant-induced arthritic model of rat at a dose of 2 mg/kg. It is filed as functional.
Assay [4] relates to Rattus norvegicus. Put plainly: Compound was evaluated for percentage recovery from GAG in adjuvant-induced arthritic model of rat at a dose of 2 mg/kg. It is filed as functional.
The subject of assay [5] is Rattus norvegicus. The experiment in a line: Compound was evaluated for percentage recovery from femur weight in adjuvant-induced arthritic model of rat at a dose of 2 mg/kg. It is filed as functional.
The subject of assay [6] is Rattus norvegicus. The experiment in a line: Compound was evaluated for percentage recovery from GAG in adjuvant-induced arthritic model of rat at a dose of 50 mg/kg. It is filed as functional.
The test system of assay [7] is Rattus norvegicus. Put plainly: Compound was evaluated for percentage recovery from paw edema in adjuvant-induced arthritic model of rat at a dose of 50 mg/kg. It is filed as functional.
Assay [8] has as its system Rattus norvegicus. Put plainly: Compound was evaluated for percentage recovery from femur weight in adjuvant-induced arthritic model of rat at a dose of 50 mg/kg. It is filed as functional.
For assay [9], the system named is Rattus norvegicus. Put plainly: Compound was evaluated for percentage recovery from femur weight in adjuvant-induced arthritic model of rat at a dose of 10 mg/kg. It is filed as functional, organism-based. Also on record: dose 10 mg/kg.
The subject of assay [10] is Rattus norvegicus. The experiment in a line: Compound was evaluated for percentage recovery from GAG in adjuvant-induced arthritic model of rat at a dose of 10 mg/kg. It is filed as functional, organism-based. Also on record: dose 10 mg/kg.
The test system of assay [11] is Rattus norvegicus. The experiment in a line: Compound was evaluated for percentage recovery from paw edema in adjuvant-induced arthritic model of rat at a dose of 10 mg/kg. It is filed as functional, organism-based. Also on record: dose 10 mg/kg.
In assay [12] the test system is Rattus norvegicus. Put plainly: TNF-alpha inhibiting activity was assessed by In vivo inhibition of serum TNF production in rat, at 50 mg/kg, po. It is filed as functional.

Consider `CCOC(=O)c1c(NC(=O)C(C)C)sc2c1CCN(C)C2`, for which, in assay [1], it took 32 µM to reach half-maximal inhibition (IC50). Besides, testing at 50 mg/kg in assay [2] gave an inhibition in vivo of 22.7%.
The compound `CCOC(=O)c1c(NC(=O)C(C)C)sc2c1CCN(Cc1ccccc1)C2` displayed an IC50 in assay [1] of 42 µM.
As to `CCOC(=O)c1c(N(C)C(=O)N(CC)CC)sc2c1CCN(C(C)=O)C2`, the IC50 in [1] was 12 µM. This compound also registered an inhibition in vivo at 50 mg/kg in assay [2] of 51.9%.
On to `COc1ccc2c(c1)c(CC(=O)O)c(C)n2C(=O)c1ccc(Cl)cc1` [INDOMETHACIN], for which, in [3], the Paw edema was 72.1%. The GAG in assay [4] stood at 7.4%. In addition, the Femur weight in assay [5] was 20%.
Regarding `CC(=O)N1CCc2c(sc(NC(=O)C(C)C)c2C(=O)O)C1`, the IC50 in assay [1] is greater than 100 µM.
The compound `CCOC(=O)c1c(NC(=O)OCCN2CCOCC2)sc2c1CCN(C(C)=O)C2` registered an IC50 in assay [1] of 13 µM. The compound also showed an inhibition in vivo at 50 mg/kg in assay [2] of 57.6%.
For `CCOC(=O)Nc1sc2c(c1C(=O)OCC)CCN(C(C)=O)C2`, in that order: 20 µM and 57.1%.
For `CCOC(=O)c1c(NC(=O)Nc2cccnc2)sc2c1CCN(C(C)=O)C2`, in that order: 13 µM and 48.7%.
On to `CC(=O)N1CCc2c(sc(NC(=O)C(C)C)c2C(=O)OC(C)C)C1`, for which, in assay [1], half-maximal inhibition (IC50) was put at 7.1 µM. For the same compound, in [2], at 50 mg/kg the inhibition in vivo was 42.1%.
The like results for `CCOC(=O)c1c(NC(=O)N(CC)C2CCCCC2)sc2c1CCN(C(C)=O)C2` were, in that order, 12 µM and 7.6%.
`CCOC(=O)c1c(NC(=O)N(CC)CC)sc2c1CCN(C(C)=O)C2` came in with an IC50 in [1] of 6.2 µM. In addition, the GAG in assay [6] came to 119%. The same compound displayed an inhibition in vivo at 50 mg/kg in assay [2] of 92.3%. The Paw edema in [7] is on record as 42.5%. Besides, in assay [8], the Femur weight stood at 110%.
`CCOC(=O)c1c(NC(=O)C(C)C)sc2c1CCOC2` gave an IC50 in assay [1] of 10 µM. The same compound gave an inhibition in vivo at 50 mg/kg in [2] of 17.6%.
The like results for `CCCC(=O)Nc1sc2c(c1C(=O)OCC)CCN(C(C)=O)C2` were, in that order, 28 µM and 33.3%.
In assay [1], `CCOC(=O)c1c(NC(=O)C(C)C)sc2c1CCSC2` showed an IC50 of 34 µM. The compound further displayed an inhibition in vivo at 50 mg/kg in [2] of 21.2%.
As to AURANOFIN, the Femur weight in [9] was 17%. Also, in assay [10], the GAG is 73%. The Paw edema in [11] is -4.7%.
Compound `CCOC(=O)c1c(NC(C)=O)sc2c1CCN(C(C)=O)C2` showed an IC50 in [1] of 13 µM. For the same compound, the inhibition in vivo at 50 mg/kg in [2] was 78.4%.
In the case of `CCOC(=O)c1c(NC(=O)CC)sc2c1CCN(CC)C2`, it took 22 µM to reach half-maximal inhibition in [1] (IC50). The compound also showed an inhibition in vivo at 50 mg/kg in assay [2] of 9.2%.
`CCOC(=O)c1c(NC(=O)C(C)C)sc2c1CCN(CC)C2` came in with an IC50 in assay [1] of 15 µM. The compound also had an inhibition in vivo at 50 mg/kg in assay [2] of 69.2%.
The like results for `CCOC(=O)c1c(NC(=O)N2CCSC2)sc2c1CCN(CC)C2` were, in that order, 6 µM and 5.4%.
The like results for `CCOC(=O)c1c(NC(=O)N2CCSCC2)sc2c1CCN(C(C)=O)C2` were, in that order, 12 µM and 20%.
With `CCOC(=O)c1c(NC(=O)C(C)C)sc2c1CCN(C(C)=O)C2`, the inhibition in vivo at 50 mg/kg in assay [2] turned out to be 49.1%.
In turn, `CCOC(=O)c1c(NC(=O)C(C)C)sc2c1CCCC2` returned an IC50 in assay [1] of 28 µM. Further, in assay [2], the inhibition in vivo at 50 mg/kg came out at 1.8%.
`CC(=O)N1CCc2c(sc(NC(=O)C(C)C)c2C(N)=O)C1`: the IC50 in assay [1] is greater than 100 µM.
Regarding `CCOC(=O)c1c(NC(=O)N2CCNCC2)sc2c1CCN(C(C)=O)C2`, in [1], 16 µM corresponded to half-maximal inhibition (IC50). Besides, the inhibition in vivo at 50 mg/kg in assay [2] was determined as 51.4%.
For `CC(=O)N1CCc2c(sc(NC(=O)C(C)C)c2C#N)C1`, in that order: 22 µM and 23.2%.
`CCOC(=O)c1c(NC(=O)C(C)C)sc2c1CCN(C(=O)c1ccccc1)C2` displayed a 50% inhibitory concentration (IC50) in [1] of 10 µM. For the same compound, the inhibition in vivo at 50 mg/kg in assay [2] amounted to 31.8%.
On to `CCCN1CCc2c(sc(NC(=O)C(C)C)c2C(=O)OCC)C1`, for which, in assay [1], the IC50 was 40 µM. In other words, the double-digit micromolar range.
In the case of `CCOC(=O)c1c(NC(=O)NC(Cc2ccccc2)C(=O)OC)sc2c1CCN(C(C)=O)C2` (stereo unspecified), the IC50 in [1] is 0.9 µM. Besides, the inhibition in vivo at 50 mg/kg in assay [2] turned out to be 8.2%.
The like results for `CCCN(CC1CC1)C(=O)Nc1sc2c(c1C(=O)OCC)CCN(C(C)=O)C2` were, in that order, 1.3 µM and 34.8%.
The like results for `CCOC(=O)c1c(NC(=O)N2CCN(C=O)CC2)sc2c1CCN(C(C)=O)C2` were, in that order, 22 µM and 41.9%.
The like results for `CCCCC(CC)COC(=O)c1c(NC(=O)C(C)C)sc2c1CCN(C(C)=O)C2` (stereo unspecified) were, in that order, 10 µM and 10.6%.
Compound `CCOC(=O)c1c(NC(=O)C2CC2)sc2c1CCN(C(C)=O)C2` displayed an inhibition in vivo at 50 mg/kg in [2] of 64.2%.
As for `CCOC(=O)c1c(NC(=O)CC)sc2c1CCN(C(C)=O)C2`, the IC50 in [1] stood at 7.9 µM. In assay [2], this compound registered an inhibition in vivo at 50 mg/kg of 90.1%.
For `CCCCC(=O)Nc1sc2c(c1C(=O)OCC)CCN(C(C)=O)C2`, in that order: 18 µM and 42.9%.
The like results for `CCNC(=O)Nc1sc2c(c1C(=O)OCC)CCN(C(C)=O)C2` were, in that order, 19 µM and 17%.
Turning to `CCOC(=O)c1c(NC(=O)N2CCCCC2)sc2c1CCN(C(C)=O)C2`, the IC50 in [1] was 13 µM. The same compound registered an inhibition in vivo at 50 mg/kg in [2] of 46.8%.
The like results for `CCOC(=O)c1c(NC(=O)C(C)(C)C)sc2c1CCN(C(C)=O)C2` were, in that order, 11 µM and 63.7%.
For `CCOC(=O)c1c(NC(=O)CC(C)C)sc2c1CCN(C(C)=O)C2`, in that order: 20 µM and 33.1%.
For `CCOC(=O)c1c(NC(=O)N(CC)CC)sc2c1CCN(CC)C2`, inhibition in assay [1] was half-maximal at 2.2 µM (IC50). This compound also showed an inhibition in vivo at 50 mg/kg in [12] of 88.7%.
As for `CCOC(=O)c1c(NC(=O)NN2CCOCC2)sc2c1CCN(C(C)=O)C2`, the IC50 in [1] turned out to be 12 µM. Besides, testing at 50 mg/kg in [2] gave an inhibition in vivo of 22.1%.
`CCOC(=O)c1c(NC(=O)c2cccnc2)sc2c1CCN(C(C)=O)C2` returned an inhibition in vivo at 50 mg/kg in assay [2] of 23.5%.
The compound `CCOC(=O)c1c(NC(=O)N2CCN(C)CC2)sc2c1CCN(C(C)=O)C2` yielded an IC50 in [1] of 17 µM. Also, in assay [2], the inhibition in vivo at 50 mg/kg turned out to be 40.7%.
Regarding `CCOC(=O)c1c(N(C)C(=O)CC)sc2c1CCN(C(C)=O)C2`, the IC50 in assay [1] came out at 9 µM. This compound also registered an inhibition in vivo at 50 mg/kg in assay [2] of 81%.
The like results for `CCOC(=O)c1c(NC(=O)N2CCOCC2)sc2c1CCN(C(C)=O)C2` were, in that order, 1 µM and 90.3%.
